The values that follow come from patent publication EP2949653A1, “ISOXAZOLE DERIVATIVES AS LEUKOTRIENE BIOSYNTHESIS INHIBITORS” (Banoglu, Erden, priority 2014, dated 2015).

SMILES strings stand for the structures.

Series [1] has as its target T1, 5-LO (Homo sapiens, UniProt P09917).
T1 sequence (P09917 1-674): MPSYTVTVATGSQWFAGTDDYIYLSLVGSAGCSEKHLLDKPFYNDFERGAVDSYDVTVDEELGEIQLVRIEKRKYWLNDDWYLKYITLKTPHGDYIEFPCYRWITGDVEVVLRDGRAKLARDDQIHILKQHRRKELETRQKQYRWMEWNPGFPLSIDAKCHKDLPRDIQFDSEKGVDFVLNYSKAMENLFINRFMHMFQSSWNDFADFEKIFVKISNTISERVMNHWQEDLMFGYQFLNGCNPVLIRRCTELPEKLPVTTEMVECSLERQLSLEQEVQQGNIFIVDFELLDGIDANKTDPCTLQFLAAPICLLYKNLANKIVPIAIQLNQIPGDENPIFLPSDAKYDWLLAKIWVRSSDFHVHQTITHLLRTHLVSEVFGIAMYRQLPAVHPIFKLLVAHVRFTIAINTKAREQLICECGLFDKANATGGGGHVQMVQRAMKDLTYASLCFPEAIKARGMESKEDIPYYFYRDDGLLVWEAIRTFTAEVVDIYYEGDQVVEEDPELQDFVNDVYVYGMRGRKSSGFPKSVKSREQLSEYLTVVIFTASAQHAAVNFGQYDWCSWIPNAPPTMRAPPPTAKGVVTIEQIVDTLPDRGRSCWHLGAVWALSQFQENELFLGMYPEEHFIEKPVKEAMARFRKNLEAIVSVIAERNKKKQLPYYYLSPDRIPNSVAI
Kind of series: 5-LO mediated product formation in neutrophil homogenates (reducing conditions). The class given is biochemical. On the set-up: endogenous in cells; host or cells: neutrophil homogenates. To be noted: with or without GSH (1 mM), 20 µM AA (Figure 6). Here is the method: Cell based and cell-free assays carried out in biological studies, immunofluorescence microscopy analysis and zymosan-induced peritonitis in mice are performed as described hereinabove (Pegola, C. and et al., British J. Pharmacology, 2014, D01:10.1111/bph.12625). In the cell based assays (intact neutrophils or monocytes), 5-LO mediated product formation is started, after pre-incubation with test compounds (or control DMSO) for 15 min. at 37 °C, with addition of Ca-ionophore A23187 (2.5 µM) to the fresh 5 x 10^6 neutrophils or monocytes suspended in 1 ml of PGC buffer (phosphate buffered saline (PBS) solution containing 1 mg ml^-1 glucose and 1mM CaCl2, pH 7.4). After the incubation for 10 min. at 37 °C, the reaction is ended with addition of 1 ml of methanol, and 30 µL 1 N HCl, 200 ng prostaglandin B1 and 500 µL PBS are added to the mixture. […] Resulting 5-LO mediated products are extracted and analysed by the known method of high pressure liquid chromatography (HPLC) (Pergola, C. Proc Natl. Acad. Sci. U.S.A. 2008, 105, 19881). 5-LO mediated product formation (LTB4 and all trans isomers, and 5 (S)-hydro(pero)xy-6-trans-8, 11, 14-cis-eicosatetraenoic acid, 5-H(p)ETE) is expressed as ng per 10^6 cell. Cysteinyl-LTs have not been analyzed because that the amount of C4, D4 and E4 and LTB4 oxidation products are below the detection limit. […]

The next series has as its system PMNL. Kind of series: Cytotoxicity to PMNL. The class given is cell-based. Particulars: within 1 hour at 10 µM.
In series [2] the target is T2, microsomal prostaglandin E synthase-1 (mPGES-1) (Homo sapiens, UniProt O14684).
T2 sequence (O14684 1-152): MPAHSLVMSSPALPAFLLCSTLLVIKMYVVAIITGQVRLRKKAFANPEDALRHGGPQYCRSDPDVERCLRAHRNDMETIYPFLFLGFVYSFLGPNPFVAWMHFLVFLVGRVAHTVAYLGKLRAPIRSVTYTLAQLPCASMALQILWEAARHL
Kind of series: mPGES-1 inhibition. The class given is biochemical. How it is done:
Compound 9hj inhibited microsomal prostaglandin E synthase-1 (mPGES-1) with IC50 of 5 µM.

The target in series [3] is T1, 5-LO. Kind of series: 5-LO mediated product synthesis in HEK293 cells transfected with only 5-LO. To be noted: 2.5 µM A23187 plus 3 µM AA (Figure 7). The class given is cell-based. Here is the method: Compound 9hj inhibited 5-LO mediated product synthesis in HEK293 cells transfected with only 5-LO, with IC50 of 900 nM. […] After preincubation of cells with 9hj for 15 min at 37°C, cells were stimulated with 2.5 µM A23187 plus 3 µM AA for 10 min at 37°C. Data are expressed as percentage of vehicle control (0.1% DMSO). 100% controls correspond to 157.48 ng mL^-1 for 5-LO transfected cells and 155.15 ng mL^-1 for 5-LO plus FLAP transfected cells.

The subject of another series is translocation of 5-LO. Kind of series: 5-LO subcellular localization by immunofluorescence microscopy. Particulars: 0.1 and 1 µM; Ca-ionophore A23187 (2.5 µM; 3 min) (Figure 8). The class given is cell-based.

For orientation: IC50 means the concentration that gives 50% inhibition.

As to `O=C(O)c1noc(-c2ccc(OCc3ccc4ccccc4n3)cc2)c1-c1ccc(Cl)cc1` [Compound 9hj, 4-(4-Chlorophenyl)-5-(4-(quinolin-2-ylmethoxy)phenyl)isoxazole-3-carboxylic acid], the IC50 against 5-LO [1] was 1000 nM; in series [2], 5000 nM; at 5-LO [3], 900 nM. For the same compound, the “cytotoxicity to PMNL” value with PMNL is given as “not cytotoxic”. In the series with translocation of 5-LO, the “translocation of 5-LO from soluble subcellular compartment to nuclear membrane” value is “inhibited translocation”.
